Where “and” joins values, the source holds several entries; their conditions need not be identical. Equal values may be shown once. Inconclusive results are not listed.
Test system: nude mice, LX-1 lung xenograft intrarenal, tumor weight T/C
Assay: NCI In Vivo Anticancer Drug Screen. Data for tumor model Human Lung LX-1 Xenograft (intrarenal inoculation) in NU/NU Swiss (nude) mice
Settings: endpoint: mean tumor weight change, higher = larger tumour
Procedure, shortened: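 Antitumor effect is expressed as a ratio: the mean tumor measurement of the drug-treated group relative to that of the vehicle-dosed control group.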

[1] = dose: 25.0 mg/kg/injection, schedule: Q04DX003 (sc), vehicle: Klucel (hydroxypropylcellulose) (HPC)
[2] = dose: 50.0 mg/kg/injection, schedule: Q04DX003 (sc), vehicle: Klucel (hydroxypropylcellulose) (HPC)
[3] = dose: 100.0 mg/kg/injection, schedule: Q04DX003 (sc), vehicle: Klucel (hydroxypropylcellulose) (HPC)
[4] = dose: 18.75 mg/kg/injection, schedule: Q04DX003 (sc), vehicle: Klucel (hydroxypropylcellulose) (HPC)
[5] = dose: 37.5 mg/kg/injection, schedule: Q04DX003 (sc), vehicle: Klucel (hydroxypropylcellulose) (HPC)
[6] = dose: 75.0 mg/kg/injection, schedule: Q04DX003 (sc), vehicle: Klucel (hydroxypropylcellulose) (HPC)
[7] = dose: 150.0 mg/kg/injection, schedule: Q04DX003 (sc), vehicle: Klucel (hydroxypropylcellulose) (HPC)

SMILES: COc1cc([C@@H]2c3cc4c(cc3[C@@H](OC3OC5COC(C)OC5C(O)C3O)[C@H]3COC(=O)[C@H]23)OCO4)cc(OC)c1O (stereo not given in full)
- T/C (dose: 2.0 mg/kg/injection, schedule: Q01DX010 (sc), vehicle: saline): 153 % of control
- T/C (dose: 4.0 mg/kg/injection, schedule: Q01DX010 (sc), vehicle: saline): 80 % of control
- T/C (dose: 8.0 mg/kg/injection, schedule: Q01DX010 (sc), vehicle: saline): 85 % of control
- T/C (dose: 16.0 mg/kg/injection, schedule: Q01DX010 (sc), vehicle: saline): 31 % of control

SMILES: C=C(C(=O)O)C(N)C(=O)O (stereo not given)
- T/C (dose: 1200.0 mg/kg/injection, schedule: Q04DX003 (sc), vehicle: suspension in saline): 76 % of control

SMILES: O=P1(NCCCl)OCCCN1CCCl (stereo not given)
- T/C (dose: 75.0 mg/kg/injection, schedule: Q04DX003 (sc), vehicle: saline): 93 % of control
- T/C (dose: 150.0 mg/kg/injection, schedule: Q04DX003 (sc), vehicle: saline): 109 % of control

SMILES: C/C(=N\N=C(/[Se])N1CC2CCC(CC2)C1)c1ccccn1
- T/C (dose: 12.5 mg/kg/injection, schedule: Q04DX003 (sc), vehicle: Klucel (hydroxypropylcellulose) (HPC)): 100 % of control
- T/C [1]: 79 % of control
- T/C [2]: 85 % of control
- T/C [3]: 253 % of control

SMILES: CC(=O)O[C@@H]1CO[C@H]2O[C@H]3[C@@H](C(C=O)=C[C@H](O)[C@@H]4C5=C(C(C)C)CC[C@]5(C)CC[C@@]34C)[C@@]2(O)C1=O
- T/C [3]: 94 % of control
- T/C (dose: 400.0 mg/kg/injection, schedule: Q04DX003 (sc), vehicle: Klucel (hydroxypropylcellulose) (HPC)): 54 % of control

SMILES: OCCOCC(F)(F)F
- T/C (dose: 300.0 mg/kg/injection, schedule: Q04DX003 (sc), vehicle: saline): 78 % of control
- T/C (dose: 600.0 mg/kg/injection, schedule: Q04DX003 (sc), vehicle: saline): 95 % of control

SMILES: OCCCN1CCCCC1CO (stereo not given)
- T/C (dose: 200.0 mg/kg/injection, schedule: Q04DX003 (sc), vehicle: saline): 98 % of control

SMILES: O=C(O)C1CC(c2ccccc2)=NN1c1ccccc1 (stereo not given)
- T/C (dose: 150.0 mg/kg/injection, schedule: Q04DX003 (sc), vehicle: water): 105 % of control

SMILES: Nc1ncnc2c1nnn2C1OC(CO)C(O)C1O (stereo not given)
- T/C [4]: 102 % of control
- T/C [5]: 96 % of control
- T/C [6]: 103 % of control
- T/C [7]: 80 % of control

SMILES: COc1ccc(S(=O)(=O)N=N/C=C2\C=CC=CN2O)cc1OC
- T/C (dose: 75.0 mg/kg/injection, schedule: Q04DX003 (sc), vehicle: saline with Tween-80): 111 % of control
- T/C (dose: 150.0 mg/kg/injection, schedule: Q04DX003 (sc), vehicle: saline with Tween-80): 124 % of control
- T/C (dose: 600.0 mg/kg/injection, schedule: Q04DX003 (sc), vehicle: saline with Tween-80): 11 % of control

SMILES: CC[C@](C)(O)C(=O)O[C@H]1C(=O)O[C@@H]2C[C@H]3C(C)=CC(=O)[C@@H](O)[C@]3(C)[C@H]3[C@@]4(O)OC[C@]32[C@@H]1[C@@H](C)[C@H]4O
- T/C (dose: 0.25 mg/kg/injection, schedule: Q01DX010 (sc), vehicle: Klucel (hydroxypropylcellulose) (HPC)): 48 % of control
- T/C (dose: 0.5 mg/kg/injection, schedule: Q01DX010 (sc), vehicle: Klucel (hydroxypropylcellulose) (HPC)): 71 % of control and 92 % of control
- T/C (dose: 1.0 mg/kg/injection, schedule: Q01DX010 (sc), vehicle: Klucel (hydroxypropylcellulose) (HPC)): 70 % of control and 75 % of control
- T/C (dose: 2.0 mg/kg/injection, schedule: Q01DX010 (sc), vehicle: Klucel (hydroxypropylcellulose) (HPC)): 43 % of control and 45 % of control

SMILES: O=C(C#Cc1ccccc1)c1ccccc1
- T/C [4]: 87 % of control
- T/C [1]: 111 % of control
- T/C [5]: 96 % of control
- T/C [2]: 90 % of control
- T/C [6]: 105 % of control
- T/C [3]: 113 % of control
- T/C [7]: 65 % of control
- T/C (dose: 200.0 mg/kg/injection, schedule: Q04DX003 (sc), vehicle: Klucel (hydroxypropylcellulose) (HPC)): 81 % of control

SMILES: COC1C(CO)OC(n2cnc3c(=S)nc(N)[nH]c32)C1O (stereo not given)
- T/C [6]: 118 % of control
- T/C [7]: 110 % of control
- T/C (dose: 300.0 mg/kg/injection, schedule: Q04DX003 (sc), vehicle: Klucel (hydroxypropylcellulose) (HPC)): 86 % of control
- T/C (dose: 600.0 mg/kg/injection, schedule: Q04DX003 (sc), vehicle: Klucel (hydroxypropylcellulose) (HPC)): 66 % of control

From PubChem BioAssay AID264 (DTP/NCI, 2004)
